As usually defined, the half-life is how long it takes for the measured level to halve. The microsomal CLint is a measure of how fast metabolising enzymes remove a compound, apart from limits set by blood flow. The Papp A→B is how fast a substance crosses the layer from the apical side. A word on the Papp B→A: it is the apparent permeability from the basolateral to the apical side of a cell layer.

Data on one compound can be found in article PMC7894426, “Influence of verapamil on the pharmacokinetics of rotundic acid in rats and its potential mechanism” (Pharmaceutical Biology, 2021).

In data set [1] the target is T1, CYP2C8 (Homo sapiens, UniProt P10632).
T1 construct: purchased Research Institute for Liver Disease (Shanghai) Co., Ltd
T1 sequence (P10632 1-490): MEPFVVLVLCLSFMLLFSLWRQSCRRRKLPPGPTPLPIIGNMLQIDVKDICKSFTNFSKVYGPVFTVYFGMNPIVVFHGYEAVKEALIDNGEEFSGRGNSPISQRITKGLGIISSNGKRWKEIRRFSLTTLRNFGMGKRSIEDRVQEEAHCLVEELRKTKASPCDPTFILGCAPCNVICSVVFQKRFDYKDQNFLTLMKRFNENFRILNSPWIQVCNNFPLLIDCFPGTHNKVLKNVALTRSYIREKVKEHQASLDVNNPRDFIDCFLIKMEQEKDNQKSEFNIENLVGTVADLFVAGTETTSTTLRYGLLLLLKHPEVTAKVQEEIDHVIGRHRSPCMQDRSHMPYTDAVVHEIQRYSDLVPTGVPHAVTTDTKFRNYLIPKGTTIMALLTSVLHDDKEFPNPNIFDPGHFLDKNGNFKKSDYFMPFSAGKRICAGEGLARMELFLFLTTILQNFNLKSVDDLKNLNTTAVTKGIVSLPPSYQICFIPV
The data set can be described thus: Metabolic depletion of RA by rhCYP2C8. In kind it is in vitro ADME. Particulars: rhCYP2C8 25 pM, RA 2 µM, 30 min. As for the experimental part: (§1) The metabolic stability of RA was evaluated against five rhCYPs (1A2, 2C8, 2C9, 2D6 and 3A4). Incubation was taken place in 0.1 M sodium phosphate buffer (pH 7.4) containing 5 mM MgCl2, 1 mM NADPH, and 25 pM rhCYP enzyme protein at 37 °C in a total volume of 1 mL. After pre-incubated for 5 min, the reactions were started by the addition of RA methanol solution (final concentration of 2 µM). Aliquots of 50 µL incubation solution were collected from the reaction at 0, 5, 10, 20 and 30 min, and quenched with 50 µL ice-cold methanol (containing 0.5% formic acid) and 100 µL ice-cold acetonitrile containing IS (10 ng/mL). The heat-inactivated rhCYP3A4 were used as negative controls. All reactions were conducted in triplicate, followed by LC-MS/MS analysis. Results presented in percentage of drug remaining in incubation starting at 100% at time zero.

Data set [2] deals with rat liver microsomes. The data set can be described thus: Metabolic stability in rat liver microsomes with or without verapamil. In kind it is in vitro ADME. The following applies: heat-inactivated microsomes, RA 2 µM. The procedure:
(§2) Low metabolic stability is a major barrier to further improve the oral bioavailability of the herb drugs. To gauge the medicinal chemistry value of RA, we evaluated their metabolic stability in RLMs with or without verapamil. The in vitro microsomal stability assay was conducted in triplicate in rat liver microsomal systems, which were supplemented with NADPH as a cofactor. The assay conditions and reaction mixtures were similar to the previous report with minor modifications (Li et al. [2016]; Sun et al. [2019]). Briefly, the incubation system (final volume of 1 mL) consisted of 1 mg/mL rat liver microsomal protein, 1 mM NADPH, and 5 mM MgCl2 in 0.1 M sodium phosphate buffer (pH 7.4). The incubation system was pre-incubated at 37 °C for 15 min and initiated by adding RA methanol solution (final concentration of 2 µM). The effects of verapamil on the metabolic stability of RA were investigated by adding 50 µM of verapamil (Ma et al. [2000]; Lee and Kim [2013]; Dinger et al. [2014]) to RLMs and pre-incubating for 15 min at 37 °C. The final concentration of methanol (used for dissolving the substrate and inhibitor) was lower than 1% (v/v). Negative control was performed in parallel in a heat-inactivated liver microsomes incubation system to measure any chemical instability or non-enzymatic degradation. Aliquots of 50 µL incubation solution were collected from the reaction at 0, 5, 15, 30 and 60 min, and quenched with 50 µL ice-cold methanol (containing 0.5% formic acid) and 100 µL ice-cold acetonitrile containing IS (10 ng/mL). The samples were then vortexed for 1 min and centrifuged at 12,000 rpm for 10 min at 4 °C. The supernatants were collected and analyzed by LC-MS/MS.
(§3) Substrate depletion and in vitro half-life (t1/2) are common descriptors for metabolic stability. The t1/2 is calculated by the substrate disappearance. The obtained concentration value for time t is divided by the value for time zero and then multiplied by a factor of 100, which represents the ‘% Remaining’ to provide the relative remaining substrate level for the time t. The natural logarithm (ln) of the ‘% Remaining’ of RA was plotted against the incubation time (in min) using linear regression.
(§4) Where, ke, the elimination rate constant, is the slope of a linear regression curve in a semilog plot. Data were collected from triplicate experiments.

Assay in data set [3]: as above
The format is in vitro ADME. The following applies: rat, liver microsomes, RLMs 1 mg/mL, RA 2 µM; for k el at 2 µM: read-out: ke (converted). The procedure: as §2, §3, §4
On the technique in general: Liver microsomes are a subcellular fraction often used to study metabolism.

The target in data set [4] is T2, CYP1A2 (Homo sapiens, UniProt P05177).
T2 construct: purchased Research Institute for Liver Disease (Shanghai) Co., Ltd
T2 sequence (P05177 1-516): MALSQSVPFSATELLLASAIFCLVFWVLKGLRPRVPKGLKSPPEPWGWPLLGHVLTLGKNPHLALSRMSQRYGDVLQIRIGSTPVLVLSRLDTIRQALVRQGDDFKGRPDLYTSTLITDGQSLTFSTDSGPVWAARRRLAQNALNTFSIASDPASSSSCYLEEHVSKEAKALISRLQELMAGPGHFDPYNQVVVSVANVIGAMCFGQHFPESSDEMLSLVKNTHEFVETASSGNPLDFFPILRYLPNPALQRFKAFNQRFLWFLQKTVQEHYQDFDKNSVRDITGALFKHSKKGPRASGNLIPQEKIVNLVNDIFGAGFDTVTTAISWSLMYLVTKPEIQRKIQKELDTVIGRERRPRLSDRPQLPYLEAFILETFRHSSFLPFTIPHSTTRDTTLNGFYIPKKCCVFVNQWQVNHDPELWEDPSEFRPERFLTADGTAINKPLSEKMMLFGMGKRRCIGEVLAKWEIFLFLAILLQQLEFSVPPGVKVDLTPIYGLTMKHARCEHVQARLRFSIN
Nature of the data set: Metabolic depletion of RA by rhCYP1A2. The format is in vitro ADME. The following applies: rhCYP1A2 25 pM, RA 2 µM, 30 min. The procedure:
as §1

Data set [5] in a line: Bidirectional transport across MDCKII-Mock cell monolayers. The format is in vitro ADME, canine. The following applies: dog, MDCK, MDCKII-Mock, 20 min; for efflux ratio at 20 min: read-out: RE (efflux ratio). The procedure:
The qualified monolayers were used for transport studies. […] Each experiment was carried out in triplicate.

Data set [6] relates to Caco-2 cells. Nature of the data set: MTS cell-proliferation assay. Particulars: 25 µM RA. The format is cell-based, human. For orientation: Tetrazolium assays rely on reduction of a dye to a coloured formazan, in cell work by metabolically active cells.
Where [7] appears, read: pH 7.4, with verapamil 50 µM, pre-treatment of verapamil 50 µM.
The mark [8] stands for this setting: pH 7.4, with verapamil 50 µM, + 50 µM verapamil.

Where two headings read alike, the source gives them in different places. A value given as a limit tells only on which side of the number the result lay.

`C[C@@H]1CC[C@]2(C(=O)O)CC[C@]3(C)C(=CC[C@@H]4[C@@]5(C)CC[C@H](O)[C@@](C)(CO)[C@@H]5CC[C@]43C)[C@@H]2[C@]1(C)O` [RA, Rotundic acid] gave an RA converted in data set [1] of under 30%. In addition, the “degradation in negative control” value in data set [2] is “No obvious degradation”. Moreover, in data set [3] (setting [7]), the half-life at 2 µM was found to be 58.2 ± 5.17 min, the intrinsic clearance (microsomal CLint) at 2 µM was determined as 12 ± 1.06 µL/min/mg and the k el at 2 µM was 0.0002 s⁻¹. In data set [3] (pH 7.4, control), the half-life at 2 µM is 14.3 ± 0.941 min, the intrinsic clearance (microsomal CLint) at 2 µM came to 48.5 ± 3.18 µL/min/mg and the k el at 2 µM was 0.000808 s⁻¹. For the same compound, the “metabolism of RA (substrate depletion)” value in data set [4] is “hardly metabolized”. Moreover, in data set [5] (setting [8]), the Papp A→B at 20 min stood at 6.52 ± 0.864 ×10⁻⁶ cm/s, the Papp B→A at 20 min was found to be 6.23 ± 0.895 ×10⁻⁶ cm/s and the efflux ratio at 20 min stood at 0.955. Moreover, in data set [5] (pH 7.4, without verapamil), the Papp A→B at 20 min stood at 6.07 ± 0.886 ×10⁻⁶ cm/s, the basolateral-to-apical permeability (Papp B→A) at 20 min is 6.72 ± 2.03 ×10⁻⁶ cm/s and the efflux ratio at 20 min came to 1.11. Moreover, in data set [6], the “effect on cell proliferation (MTS)” value was “did not influence the cell proliferation”.
